Experimental data as given in article PMC9867837 (Cancer letters, 2022).

Assays:
[1] = system: MDA-MB-231 cells; experiment: Soft-agar colony formation; type: cell-based, human; details: 0.3–2 μM H182
Description: These studies were performed as previously reported. Details are presented in Supplementary Information, “Methods”.
These studies were performed as previously reported . For the clonogenic survival assay, briefly, cells were seeded as single-cell (500 cells per well) in 6 -well plates, then untreated (DMSO control) or treated once the following day with H182 and allowed to grow until large colonies were visible, which were stained with crystal violet for 4 h and imaged with a FluorChem imaging system (Protein Simple, Santa Clara, CA).
For the soft-agar assay, briefly, each well contained a bottom layer of 1 ml of 1% agarose in complete DMEM and a top layer of 1 ml of 0.5% agarose in complete DMEM containing 500 cells. After the upper agar layer containing cells solidified, 1 ml culture medium containing H182 (0-2 µM) or DMSO (control) was overlaid, and the cultures were maintained at 37 °C in the incubator, with the medium replacement every 3-4 days with fresh medium that contains the inhibitor or not. Cells were allowed to culture for 3-4 weeks until large colonies were visible under microscope. The colonies were stained with crystal violet and […]
1.2.8. Confocal microscopy studies
4 cells in 1 ml) in logarithmic
These studies were performed as previously reported. […]

[2] = system: MDA-MB-231 cells; experiment: Wound healing (scratch) assay for migration; type: cell-based, human; details: one-time treatment, 22 h
Description: Studies were performed as previously reported. Details are presented in Supplementary Information, “Methods”. […]
(§1) software and Prism GraphPad software (San Diego, CA), using the one-site model. Control experiments were carried out by titration H182 into buffer, buffer into Stat3, and buffer into buffer. The three controls were used as a composite for the ITC experiment to subtract the heat of dilution and background noise from […]
(§2) 1.2.11. Wound healing assay for migration
(§3) Studies were performed as previously reported [1 -3]. Briefly, cells were cultured in 6-well plates, and the monolayer of cells was scratched with a p10 pipet tip. Subsequently, fresh medium containing inhibitors or DMSO (control) was added, and then immediately, cells were imaged with a Canon Powershot A640 digital camera under a phase contrast with the Zeiss Axiovert 200 inverted microscope at 10X magnification and noted as the zero time-point. Following culture for 22 h to allow cells to migrate into the denuded area, the culture was then imaged again at the same field that was marked on the plate.
(§4) 1.2.12. Annexin V binding/apoptosis and flow cytometric analysis
(§5) For apoptosis analysis, annexin V/propidium iodide (PI) staining was performed. […] The annexin V- and/or PI-positive cells were analyzed by FACScan flow cytometer (BD Biosciences) and data was analyzed using FlowJo software. […]

[3] = system: MDA-MB-231 cells; experiment: Annexin V/propidium iodide staining with flow cytometry; type: cell-based, human; details: 3 μM H182 for 3 h
Description: For apoptosis analysis, annexin V/propidium iodide (PI) staining was performed. Details are presented in Supplementary Information, “Methods”. […]
as §1, §2, §3, §4, §5

[4] = system: MDA-MB-231 tumor xenografts; experiment: Subcutaneous MDA-MB-231 xenografts in athymic nude mice; type: in vivo
Description: Mice were housed in specific pathogen-free conditions in the animal facility. All animal experiments were conducted in accordance with the recommendations in the Guide for the Care and Use of Laboratory Animals on a protocol approved by the Institutional Animal Care and Use Committee (IACUC). Subcutaneous xenograft studies were performed as previously reported. Five-week-old female athymic nude mice were purchased from Envigo (Indianapolis, IN) or Charles River (Wilmington, MA) and maintained in the institutional animal facilities approved by the American Association for Accreditation of Laboratory Animal Care. […] Tumor sizes were monitored every 3–4 days, measured with calipers, and converted to tumor volume, V, according to the formula V = 0.52 × a^2 × b, where a, smallest superficial diameter, and b, largest superficial diameter. For each treatment group, the tumor volumes for each set of measurements were statistically analyzed relative to the control (DMSO-treated; 70% DMSO with sterile PBS) group.
Constitutively-active Stat3 promotes primary tumor development and the progression to therapy resistance. We proceeded to evaluate the in vivo antitumor efficacy against tumor growth in both human xenograft and mouse syngeneic models of TNBC. In four separate studies, we tested the efficacy of H182, H278 (HCl salt of H182), and H120. For these xenografts, the human breast cancer, MDA-MB-231 cells were injected subcutaneously into athymic nude mice. When tumors were palpable (80–120 mm^3), mice were grouped so that the mean tumor sizes were identical between groups and treated as follows: A) intraperitoneal (IP) injections of H182 at 10 mg/kg every other day for 33 days; B) oral gavage of H182 every day at 5 mg/kg for 20 days, and then increased to 20 mg/kg for additional 12 days; and C) oral gavage of H120 at 20 mg/kg, daily for 14 days, and then increased to 30 mg/kg, daily for additional 14 days.

[5] = Human hepatocyte stability; type: in vitro ADME
Description: The in vivo activity of a compound is influenced by its overall bioavailability, which is also driven by parameters, such as solubility, permeability, and metabolism. […] These values are all above the industry cut-off of 60 μg/ml. […] It has CLint in human hepatocytes of 16 μL/min/10^6 cells, which falls into moderate stability range [43].

[6] = Plasma stability, human; type: in vitro ADME
Description: Solubility, human (HLM) and mouse liver microsomal (MLM), and plasma stability studies were performed by Eurofins Cerep Panlabs and Eurofin Discovery Services (www.eurofins.com/PharmaDiscovery), while protein binding studies were performed by Sanford Burnham Prebys Chemical Biology & Drug Discovery Core using standard protocols.

With `O=C([C@H]1CCN1S(=O)(=O)c1c(F)c(F)c(F)c(F)c1F)N(Cc1ccc(C2CCCCC2)cn1)c1ccc2c(=O)[nH]ncc2c1` [Compound H182] the “Effect on anchorage-independent growth in soft-agar” value [1] was “potently and dose-dependently inhibited”, the “Effect on cell migration into the denuded area” value [2] was “inhibited the cell migration” and the “Annexin V/PI double-positive staining” value [3] was “roughly 12%”. The “Tumor growth, MDA-MB-231 xenografts” value ([4]; H182 IP 10 mg/kg every other day for 33 days) was “significant tumor growth inhibition”, the “Tumor growth, MDA-MB-231 xenografts” value ([4]; H182 oral gavage daily 5 mg/kg for 20 days, then 20 mg/kg for 12 days) was “significant tumor growth inhibition” and the “Body weights and obvious signs of toxicity” value ([4]; the three xenograft studies) was “No notable changes”. For the same compound, the “Metabolic Stability Human Hepatocytes CLint” value [5] was 14.6 μL/min/10^6 cells, the half-life ([5]; hepatocytes, read-out: Human Hepatocytes t1/2) was 1.13 h and the hepatocyte CLint ([5]; hepatocytes, read-out: Metabolic Stability Human Hepatocytes CLint) was 16 µL/min/1e6 cells. For the same compound, the remaining at 1 h ([6]; 1 h) was 53% and the remaining at 2 h ([6]; 2 h) was 10%.
